Assay results from patent US20230058623A1, “NOVEL HETEROARYL-TRIAZOLE COMPOUNDS AS PESTICIDES” (Bayer Aktiengesellschaft, priority 2019, published 2023).
Like-named read-outs stand apart in the source and are kept apart here.

Key:
Type in all cases: in vivo
[1] = test system: Rhipicephalus (Boophilus) microplus larvae (strain Parkhurst, resistant against synthetic pyrethroids); test: Rhipicephalus (Boophilus) microplus in-vitro contact test, larval cattle tick; conditions: read-out: activity (efficacy: larvae dead or moribund)
Procedure, shortened: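 Acetone solutions were coated onto glass tube walls, giving 5 μg/cm^2 at 900 ppm. Once dry, 20–50 pyrethroid-resistant Parkhurst larvae were added per tube and held 48 h at 27 °C and 85% RH. Efficacy was scored by negative geotaxis as the percentage of dead or moribund larvae.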

[2] = test system: adult engorged female ticks (Rhipicephalus microplus); test: Rhipicephalus (Boophilus) microplus injection test; conditions: 168 h, read-out: activity (efficacy: infertile eggs)
Procedure, shortened: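 Five adult engorged female ticks injected into the abdomen with 1 μL compound solution in DMSO, then held in a climate chamber. Fertile egg deposition assessed after 7 days, unclear eggs kept until hatching (about 42 days); efficacy 100% = all eggs infertile, 0% = all fertile.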

[3] = test system: adult cat fleas (Ctenocephalides felis); test: Ctenocephalides felis in-vitro contact test, adult cat flea; conditions: application rate 5 μg/cm^2 (=500 g/ha), after 48 hours, read-out: activity (efficacy: fleas dead or moribund)
Procedure, shortened: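 Acetone solutions of compound were coated onto inner walls of glass tubes (900 ppm giving 5 μg/cm^2) and dried; 5-10 adult C. felis were then held 48 h at room temperature. Efficacy = % fleas dead or moribund, judged by inability to escape a 45-50° C heating plate within 5 min.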

[4] = test system: adult unfed cat fleas (Ctenocephalides felis); test: Ctenocephalides felis oral test; conditions: 48 h, read-out: activity (mortality)
Experimental: Ctenocephalides felis—Oral Test
Solvent: dimethyl sulfoxide
To produce a suitable preparation of active compound, 10 mg of active compound are dissolved in 0.5 mL solvent, and the concentrate is diluted with citrated cattle blood to the desired concentration.
Approximately 20 adult unfed cat fleas (Ctenocephalides felis) are placed in a flea chamber whose top and bottom is covered with gauze. A chamber whose bottom is sealed with parafilm, is filled with the blood-compound solution and placed on top of the flea chamber, so that the fleas can suck the blood. The blood chamber is heated to 37° C. whereas the flea chamber is kept at room temperature.
After 2 days mortality in % is determined. 100% means all the fleas have been killed; 0% means none of the fleas have been killed.

[5] = test system: adult brown dog ticks (Rhipicephalus sanguineus); test: Rhipicephalus sanguineus in-vitro contact test, adult brown dog ticks; conditions: application rate 5 μg/cm^2 (=500 g/ha), after 48 hours, read-out: activity (efficacy: ticks dead or moribund)
Procedure, shortened: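 Acetone solution rolled onto tube walls, 2 h at 30 rpm; 900 ppm → 5 μg/cm^2. Solvent evaporated, 5-10 adults/tube, perforated lid, lying, RT. 48 h: heat plate 45-50° C ≤5 min; immotile/uncoordinated = dead/moribund. 100% = all dead/moribund.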

[6] = test system: fall armyworm larvae (Spodoptera frugiperda); test: Spodoptera frugiperda spray test; conditions: 168 h, application rate 100 g/ha, after 7 days, maize leaf sections
Procedure, shortened: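 Compound mixed with solvent, diluted with 1000 ppm emulsifier water to test concentrations; sprayed on maize leaf pieces; dried; larvae added; mortality (%) scored at 7 d.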

[7] = test system: green peach aphid (Myzus persicae); test: Myzus persicae oral test; conditions: 120 h, read-out: activity (mortality)
Procedure, shortened: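 Compound was dissolved at 1 part by weight in 100 parts acetone, then diluted with water to test concentration and combined with IPL41 insect medium (33%+15% sugar). A mixed aphid population fed on this through a parafilm seal, and mortality (%) was scored after 5 days.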

[8] = test system: larvae of the banded cucumber beetle (Diabrotica balteata); test: Diabrotica balteata spray test; conditions: 168 h, application rate 100 g/ha (=32 μg/well), after 7 days, wheat seeds, read-out: activity (efficacy: seedlings grown)
Procedure, shortened: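 Wheat seeds germinated 1 day on agar were sprayed with compound diluted in water with 1000 ppm emulsifier, then infested with 10-20 Diabrotica balteata larvae. Efficacy in % scored after 7 days: 100% = seedlings grown as untreated, uninfected control; 0% = no seedlings grown.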

[9] = test system: green peach aphid (Myzus persicae); test: Myzus persicae spray test; conditions: foliar, 120 h, read-out: activity (mortality)
Procedure, shortened: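 Chinese cabbage leaf disks infested with all aphid instars were sprayed with compound diluted in water containing emulsifier (1000 ppm). Mortality (%) was scored after 5 days, 100% meaning all aphids killed.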

[10] = test system: larvae of the southern green stink bug (Nezara viridula); test: Nezara viridula spray test; conditions: 96 h; for mortality at 100 g/ha: application rate 100 g/ha, after 4 days, barley plants
Procedure, shortened: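 Barley plants sprayed with the active compound in emulsifier-containing water, then infested with stink bug larvae. Mortality scored in % after 4 days, with 100% meaning all insects killed.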

[11] = application rate 1 μg/cm^2 (=100 g/ha), after 48 hours
[12] = application rate 5 μg/cm^2 (=500 g/ha), after 48 hours
[13] = application rate 4 μg/tick, egg deposition after 7 days
[14] = application rate 100 g/ha, after 5 days, Chinese cabbage leaf disks

Row | Compound | pest or weed control at 1 µg/cm2, 100 g/ha [1, 11] [%] | pest or weed control at 5 µg/cm2, 500 g/ha [1, 12] [%] | pest or weed control at 0.004 mg [2, 13] [%] | pest or weed control at 5 µg/cm2 [3] [%] | mortality at 100 ppm [4] [%] | pest or weed control at 5 µg/cm2, 500 g/ha [5] [%] | mortality at 100 g/ha [6] [%] | mortality at 4 ppm [7] [%] | pest or weed control at 32 µg/disc, 100 g/ha [8] [%] | mortality at 100 g/ha [9, 14] [%] | pest or weed control at 1 µg/cm2, 100 g/ha ([1]; 48 h) [%] | pest or weed control at 5 µg/cm2, 500 g/ha ([1]; 48 h) [%] | mortality at 100 g/ha ([9]; in Brassica rapa) [%] | mortality at 100 g/ha [10] [%] | pest or weed control at 0.004 mg [2] [%] | mortality at 500 g/ha ([10]; in Hordeum vulgare, read-out: activity (mortality)) [%]
1 | Cc1nc([C@H](C)NC(=O)c2cc(Cl)cc(C(F)(F)F)c2)n(-c2ccc(C(=O)N3CCCC3)cn2)n1 [Example I-22] | 90 | 90 | 100 | 90 | 80 | 100 | 100 | – | – | – | – | – | – | – | – | –
2 | Cc1nc([C@H](C)NC(=O)c2cc(C(F)(F)F)cc(C(F)(F)F)c2)n(-c2ncc(C(=O)N3CCC3)s2)n1 [Example I-17] | 100 | 100 | 100 | 80 | 100 | – | 100 | 100 | – | – | – | – | – | – | – | –
3 | C[C@@H]1CN(C(=O)c2ccc(-n3ncnc3[C@H](C)NC(=O)c3cc(Cl)cc(C(F)(F)F)c3)nc2)CCO1 [Example I-32] | 100 | 100 | 100 | 100 | 90 | 100 | 100 | 100 | 100 | 100 | – | – | – | – | – | –
4 | C[C@H](NC(=O)c1cc(Cl)cc(C(F)(F)F)c1)c1ncnn1-c1ccc(C(=O)N2CC3CC(C2)O3)cn1 [Example I-41] | – | – | 100 | 80 | 100 | 100 | – | 100 | 100 | – | 100 | 100 | 90 | – | – | –
5 | C[C@H](NC(=O)c1cc(Cl)cc(C(F)(F)F)c1)c1ncnn1-c1ccc(C(=O)N2CCOC[C@H]2C)cn1 [Example I-33] | 100 | 100 | 100 | – | 100 | 100 | 100 | – | – | – | – | – | – | 90 | – | –
6 | Cc1nc([C@H](C)NC(=O)c2cc(Cl)cc(C(F)(F)F)c2)n(-c2ccc(C(=O)N3CC[C@H](F)C3)cn2)n1 [Example I-18] | 100 | 90 | 100 | 90 | 100 | 100 | 100 | – | – | – | – | – | – | – | – | –
7 | C[C@H](NC(=O)c1cc(Cl)cc(C(F)(F)F)c1)c1ncnn1-c1ccc(C(=O)N2CCOC[C@@H]2C)cn1 [Example I-37] | 100 | 100 | 100 | – | 80 | 100 | 100 | – | 100 | – | – | – | – | – | – | –
8 | Cc1nc([C@H](C)NC(=O)c2cc(Cl)cc(C(F)(F)F)c2)n(-c2ccc(C(=O)N3CC[C@@H](F)C3)cn2)n1 [Example I-19] | 100 | 100 | 100 | 100 | 100 | 100 | 100 | 90 | – | – | – | – | – | – | – | –
9 | C[C@H](NC(=O)c1cc(C(F)(F)F)cc(C(F)(F)F)c1)c1ncnn1-c1ccc(C(=O)N2CCCC(O)C2)cn1 (stereo partly drawn) [Example I-7] | 90 | 90 | 100 | 90 | 90 | – | – | 100 | – | – | – | – | – | – | – | –
10 | Cc1nc([C@H](C)NC(=O)c2cc(C(F)(F)F)cc(C(F)(F)F)c2)n(-c2ccc(C(=O)N3CCC[Si](C)(C)C3)cn2)n1 [Example I-93] | – | – | – | – | 100 | – | – | – | – | – | 90 | 90 | – | – | 100 | 90
11 | Cc1nc([C@H](C)NC(=O)c2cc(OC(F)(F)F)cc(C3CC3)c2)n(-c2ccc(C(=O)N3C[C@@H](C)O[C@H](C)C3)cn2)n1 [Example I-117] | 90 | 90 | 100 | 100 | 90 | 100 | – | 100 | – | 90 | – | – | – | – | – | –
12 | C[C@@H]1CN(C(=O)c2ccc(-n3ncnc3[C@H](C)NC(=O)c3cc(OC(F)(F)F)cc(C4CC4)c3)nc2)C[C@@H](C)O1 [Example I-116] | 100 | 100 | 100 | 100 | 100 | 80 | – | 100 | 80 | 90 | – | – | – | – | – | –
13 | Cc1nc([C@H](C)NC(=O)c2cc(C(F)(F)F)cc(C(F)(F)F)c2)n(-c2ccc(C(=O)N3C[C@H](C)O[C@@H](C)C3)cn2)n1 [Example I-95] | 100 | 100 | 100 | 100 | 100 | 100 | 100 | – | 100 | – | – | – | – | 100 | – | –
